Results: US11952330B2, “Antibiotic ammonium compounds and methods for the treatment of bacterial infections” (priority 2019, dated 2024)

Columns and labels:
S. aureus = assay: MIC by broth dilution, S. aureus; assay type: cell-based; settings: Staphylococcus aureus; Mueller-Hinton broth, overnight 37° C.; Table 1; read-out: MIC (μg/mL) S. aureus
Experimental: (§1) The antibacterial efficacy of the ammonium compounds was assessed. Minimum inhibitory concentrations (MICs) were determined by broth dilution method. Dilutions of each compound, ranging from 1 μg/mL to 256 μg/mL (final concentrations) were prepared in Mueller-Hinton broth. Compound dilutions were added to wells of a 96-well plate, with the concentration of the compound increasing 2-fold by row. Each well contained 5×10^5 CFU/ml of target bacterium in a total volume of 100 μl. Plates were incubated overnight at 37° C. The following day, plates were evaluated for a visual change in growth to determine the MIC. The concentration value corresponding to the first row that no longer had visible bacterial growth, as evaluated by turbidity in the wells, was recorded as the MIC. MIC values were representative of at least biological duplicates, each made up of technical triplicates. The antibacterial efficacy of ammonium compounds in the presence of human plasma was assessed. Minimum inhibitory concentrations (MICs) were determined by broth dilution method. Dilutions of each compound, ranging from 1 μg/mL to 256 μg/mL (final concentrations) were prepared in Mueller-Hinton broth. For the plasma containing samples, compound dilutions were made in Mueller-Hinton broth and supplemented with 5% (final %) human plasma (esterases). Compound dilutions were added to wells of a 96-well plate, with the concentration of the compound increasing 2-fold by row. Each well contained 5×10^5 CFU/mL of target bacterium in a total volume of 100 μL. Plates were incubated overnight at 37° C. The following day, plates were evaluated for a visual change in growth to determine the MIC. The concentration value corresponding to the first row that no longer had visible bacterial growth, as evaluated by turbidity in the wells, was recorded as the MIC. MIC values were representative of at least biological duplicates, each made up of technical triplicates.

A. baumannii = assay: MIC by broth dilution, A. baumannii; assay type: cell-based; settings: Acinetobacter baumannii; Mueller-Hinton broth, overnight 37° C.; Table 1; read-out: MIC (μg/mL) A. baumannii
Experimental: as §1

Structure (SMILES) | MIC (S. aureus) | MIC (A. baumannii)
CCCCCCCCOc1ccccc1C(=O)Nc1ccc(C(=O)OCC[N+](C)(CC)CC)cc1.[Br-] [Compound 10, N,N-diethyl-N-methyl-2-((4-(2-(octyloxy)benzamido)benzoyl)oxy)ethan-1-aminium bromide, reference compound] | 3 to 30 µg/mL | 3 to 30 µg/mL
CCCCCCCCOc1ccccc1C(=O)Nc1cccc(C(=O)OCC[N+](C)(CC)CC)c1.[Br-] [Compound 12, N,N-Diethyl-N-methyl-2-((3-(2-(octyloxy)benzamido)benzoyl)oxy)ethan-1-aminium bromide] | 3 to 30 µg/mL | > 30 µg/mL
CCCCCCCCOc1ccccc1C(=O)Nc1ccccc1C(=O)OCC[N+](C)(CC)CC.[Br-] [Compound 13, N,N-Diethyl-N-methyl-2-((2-(2-(octyloxy)benzamido)benzoyl)oxy)ethan-1-aminium bromide] | 3 to 30 µg/mL | > 30 µg/mL
CCCCCCCCOc1cccc(C(=O)Nc2ccc(C(=O)OCC[N+](C)(CC)CC)cc2)c1OCCCCCCCC.[Br-] [Compound 14, 2-((4-(2,3-Bis(octyloxy)benzamido)benzoyl)oxy)-N,N-diethyl-N-methylethan-1-aminium bromide] | > 30 µg/mL | > 30 µg/mL
CCCCCCCCOc1ccc(C(=O)Nc2ccc(C(=O)OCC[N+](C)(CC)CC)cc2)c(OCCCCCCCC)c1.[Br-] [Compound 15, 2-((4-(2,4-Bis(octyloxy)benzamido)benzoyl)oxy)-N,N-diethyl-N-methylethan-1-aminium bromide] | > 30 µg/mL | > 30 µg/mL
CCCCCCCCOc1ccc(OCCCCCCCC)c(C(=O)Nc2ccc(C(=O)OCC[N+](C)(CC)CC)cc2)c1.[Br-] [Compound 16, 2-((4-(2,5-Bis(octyloxy)benzamido)benzoyl)oxy)-N,N-diethyl-N-methylethan-1-aminium bromide] | > 30 µg/mL | > 30 µg/mL
CCCCCCCCOc1cc(OCCCCCCCC)cc(C(=O)Nc2ccc(C(=O)OCC[N+](C)(CC)CC)cc2)c1.[Br-] [Compound 18, 2-((4-(3,5-Bis(octyloxy)benzamido)benzoyl)oxy)-N,N-diethyl-N-methylethan-1-aminium bromide] | > 30 µg/mL | > 30 µg/mL
CCCCOc1ccccc1C(=O)Nc1ccc(C(=O)OCC[N+](C)(CC)CC)cc1.[Br-] [Compound 19, 2-((4-(2-Butoxybenzamido)benzoyl)oxy)-N,N-diethyl-N-methylethan-1-aminium bromide] | > 30 µg/mL | > 30 µg/mL
CCCCCOc1ccccc1C(=O)Nc1ccc(C(=O)OCC[N+](C)(CC)CC)cc1.[Br-] [Compound 20, N,N-Diethyl-N-methyl-2-((4-(2-(pentyloxy)benzamido)benzoyl)oxy)ethan-1-aminium bromide] | > 30 µg/mL | > 30 µg/mL
CCCCCCOc1ccccc1C(=O)Nc1ccc(C(=O)OCC[N+](C)(CC)CC)cc1.[Br-] [Compound 21, N,N-Diethyl-2-((4-(2-(hexyloxy)benzamido)benzoyl)oxy)-N-methylethan-1-aminium bromide] | 3 to 30 µg/mL | > 30 µg/mL
CCCCCCCOc1ccccc1C(=O)Nc1ccc(C(=O)OCC[N+](C)(CC)CC)cc1.[Br-] [Compound 22, N,N-Diethyl-2-((4-(2-(heptyloxy)benzamido)benzoyl)oxy)-N-methylethan-1-aminium bromide] | 3 to 30 µg/mL | > 30 µg/mL
CCCCCCCCCOc1ccccc1C(=O)Nc1ccc(C(=O)OCC[N+](C)(CC)CC)cc1.[Br-] [Compound 23, N,N-Diethyl-N-methyl-2-((4-(2-(nonyloxy)benzamido)benzoyl)oxy)ethan-1-aminium bromide] | 3 to 30 µg/mL | 3 to 30 µg/mL
CCCCCCCCCCOc1ccccc1C(=O)Nc1ccc(C(=O)OCC[N+](C)(CC)CC)cc1.[Br-] [Compound 24, 2-((4-(2-(Decyloxy)benzamido)benzoyl)oxy)-N,N-diethyl-N-methylethan-1-aminium bromide] | 3 to 30 µg/mL | > 30 µg/mL
CCCCCCCCCCCOc1ccccc1C(=O)Nc1ccc(C(=O)OCC[N+](C)(CC)CC)cc1.[Br-] [Compound 25, N,N-Diethyl-N-methyl-2-((4-(2-(undecyloxy)benzamido)benzoyl)oxy)ethan-1-aminium bromide] | 3 to 30 µg/mL | > 30 µg/mL
CCCCCCCCCCCCOc1ccccc1C(=O)Nc1ccc(C(=O)OCC[N+](C)(CC)CC)cc1.[Br-] [Compound 26, 2-((4-(2-(Dodecyloxy)benzamido)benzoyl)oxy)-N,N-diethyl-N-methylethan-1-aminium bromide] | 3 to 30 µg/mL | > 30 µg/mL
CCCCCCCCCCCCCOc1ccccc1C(=O)Nc1ccc(C(=O)OCC[N+](C)(CC)CC)cc1.[Br-] [Compound 27, N,N-Diethyl-N-methyl-2-((4-(2-(tridecyloxy)benzamido)benzoyl)oxy)ethan-1-aminium bromide] | < 3 µg/mL | > 30 µg/mL
CCCCCCCCCCCCCCOc1ccccc1C(=O)Nc1ccc(C(=O)OCC[N+](C)(CC)CC)cc1.[Br-] [Compound 28, N,N-Diethyl-N-methyl-2-((4-(2-(tetradecyloxy)benzamido)benzoyl)oxy)ethan-1-aminium bromide] | 3 to 30 µg/mL | > 30 µg/mL
CCCCCCCCOc1ccccc1C(=O)Nc1ccc(C(=O)OCC[N+](CC)(CC)CC)cc1.[Br-] [Compound 29, N,N,N-Triethyl-2-((4-(2-(octyloxy)benzamido)benzoyl)oxy)ethan-1-aminium bromide] | 3 to 30 µg/mL | > 30 µg/mL
CCCCCCCCC[N+](CC)(CC)CCOC(=O)c1ccc(NC(=O)c2ccccc2OCCCCCCCC)cc1.[Br-] [Compound 30, N,N-Diethyl-N-(2-((4-(2-(octyloxy)benzamido)benzoyl)oxy)ethyl)nonan-1-aminium bromide] | 3 to 30 µg/mL | > 30 µg/mL
CCCCCCCCOc1ccc(C(=O)Nc2ccc(C(=O)OCC[N+](C)(CC)CC)cc2)cc1.[Br-] [Compound 31, N,N-Diethyl-N-methyl-2-((4-(4-(octyloxy)benzamido)benzoyl)oxy)ethan-1-aminium bromide] | > 30 µg/mL | > 30 µg/mL
CCCCCCCCOc1cccc(C(=O)Nc2ccc(C(=O)OCC[N+](C)(CC)CC)cc2)c1.[Br-] [Compound 32, N,N-Diethyl-N-methyl-2-((4-(3-(octyloxy)benzamido)benzoyl)oxy)ethan-1-aminium bromide] | 3 to 30 µg/mL | > 30 µg/mL
CCCCCCCCOc1ccccc1C(=O)Nc1ccc(C(=O)OCC[N+](CC)(CC)CCC)cc1.[Br-] [Compound 33, N,N-Diethyl-N-(2-((4-(2-(octyloxy)benzamido)benzoyl)oxy)ethyl)propan-1-aminium bromide] | < 3 µg/mL | 3 to 30 µg/mL
CCCCCCCCOc1ccccc1C(=O)Nc1ccc(C(=O)OCC[N+](CC)(CC)CCCC)cc1.[Br-] [Compound 34, N,N-Diethyl-N-(2-((4-(2-(octyloxy)benzamido)benzoyl)oxy)ethyl)butan-1-aminium bromide] | < 3 µg/mL | 3 to 30 µg/mL
CCCCCCCCOc1ccccc1C(=O)Nc1ccc(C(=O)OCC[N+](CC)(CC)CCCCC)cc1.[Br-] [Compound 35, N,N-Diethyl-N-(2-((4-(2-(octyloxy)benzamido)benzoyl)oxy)ethyl)pentan-1-aminium bromide] | < 3 µg/mL | 3 to 30 µg/mL
CCCCCCCCOc1ccccc1C(=O)Nc1ccc(C(=O)OCC[N+](CC)(CC)CCCCCC)cc1.[Br-] [Compound 36, N,N-Diethyl-N-(2-((4-(2-(octyloxy)benzamido)benzoyl)oxy)ethyl)hexan-1-aminium bromide] | < 3 µg/mL | 3 to 30 µg/mL
CCCCCCCCOc1ccccc1C(=O)Nc1ccc(C(=O)OCC[N+](CC)(CC)CCCCCCC)cc1.[Br-] [Compound 37, N,N-Diethyl-N-(2-((4-(2-(octyloxy)benzamido)benzoyl)oxy)ethyl)heptan-1-aminium bromide] | < 3 µg/mL | 3 to 30 µg/mL
CCCCCCCCOc1ccccc1C(=O)Nc1ccc(C(=O)OCC[N+](CC)(CC)CCCCCCCC)cc1.[Br-] [Compound 38, N,N-Diethyl-N-(2-((4-(2-(octyloxy)benzamido)benzoyl)oxy)ethyl)octan-1-aminium bromide] | < 3 µg/mL | > 30 µg/mL
CCCCCCCCOc1ccccc1C(=O)Nc1ccc(C(=O)OCC[N+](CC)(CC)Cc2ccc([N+](=O)[O-])cc2)cc1.[Br-] [Compound 39, N,N-Diethyl-N-(4-nitrobenzyl)-2-((4-(2-(octyloxy)benzamido)benzoyl)oxy)ethan-1-aminium bromide] | 3 to 30 µg/mL | > 30 µg/mL
CCCCCCCCOc1ccccc1C(=O)Nc1ccc(C(=O)OCC[N+](CC)(CC)Cc2cccc(C(F)(F)F)c2)cc1.[Br-] [Compound 40, N,N-Diethyl-2-((4-(2-(octyloxy)benzamido)benzoyl)oxy)-N-(3-(trifluoromethyl)-benzyl)ethan-1-aminium bromide] | < 3 µg/mL | > 30 µg/mL
